Patent US20060280817A1, “Pharmaceutical composition useful for the treatment of hepatocellular carcinoma” (priority 2005, published 2006)

Experiments:
[1] = tested on: HCT 15; assay: In vitro cytotoxicity (SRB), HCT 15; type: cell-based, human; conditions: 48 h
Procedure: (§1) The human cancer cell lines procured from National Cancer Institute, Frederick, U.S.A or National Center for Cell Science; Pune, India. were used in present study. Cells were grown in tissue culture flasks in complete growth medium (RPMI-1640 medium with 2 mM glutamine, 100 μg/ml streptomycin, pH 7.4, sterilized by filtration and supplemented with 10% fetal calf serum and 100 units/ml penicillin before use) at 37° C. in an atmosphere of 5% CO2 and 90% relative humidity in a carbon dioxide incubator. The cells at subconfluent stage were harvested from the flask by treatment with trypsin (0.5% in PBS containing 0.02% EDTA) for determination of cytotoxicity. Cells with viability of more than 98% as determined by trypan blue exclusion were used for assay. The cell suspension of the required cell density was prepared in complete growth medium with gentamycin (50 μg/ml) for determination of cytotoxicity.
(§2) A stock solutions of (20 mg/ml) of test material were prepared in distilled water. The stock solutions were serially diluted with complete growth medium containing 50 μg/ml of gentamycin to obtain working test solutions of required concentrations. In vitro cytotoxicity against human cancer cell lines was determined (Monks, A., Scudiero, D., Skehan, P., Shoemaker R., Paull, K., Vistica, D., Hose, C., Langley, j., Cronise, P., Vaigro-Wolff, A., Gray-Goodrich, M., Campbell, H., Mayo, J and Boyd, M. (1991). Feasibility of a high-flux anticancer drug screen using a diverse panel of cultured human tumor cell lines. J. Natl. Cancer Inst. 83, 757-766.) using 96-well tissue culture plates. The 100 μl of cell suspension was added to each well of the 96-well tissue culture plate. The cells were incubated for 24 hours. Test materials in complete growth medium (100 μl) were added after 24 hours incubation to the wells containing cell suspension. The plates were further incubated for 48 hours (at 37° C. in an atmosphere of […] 90% relative humidity in a carbon dioxide incubator) after addition of test material and then the cell growth was stopped by gently layering trichloroacetic acid (TCA, 50 μl, 50%) on top of the medium in all the wells. The plates were incubated at 4° C. for one hour to fix the cells attached to the bottom of the wells. The liquid of all the wells was gently pipetted out and discarded. The plates were washed five times with distilled water to remove TCA, growth medium low molecular weight metabolites, serum proteins etc and air-dried. Cell growth was measured by staining with sulforhodamine B dye (P. Skehan, R. Storeng, D. Scudiero, A. Monks, J. McMohan, D. Vistica, J. T. Warren, H. Bokesch, S. Kenney, M. R. Boyd (1990) New colorimetric cytotoxic Assay for Anticancer—Drug Screening Journal of the National Cancer Institute 82, 1107-1112). The adsorbed dye was dissolved in Tris-Buffer (100 μl, 0.01M, pH 10.4) and plates were gently stirred for 5 minutes on a mechanical stirrer. The optical density (OD) was recorded on ELISA reader at 540 nm.
(§3) The cell growth was calculated by subtracting mean OD value of respective blank from the mean OD value of experimental set. Percent growth in presence of test material was calculated considering the growth in absence of any test material as 100% and in turn percent growth inhibition in presence of test material will be calculated.
(§4) Methodology is the same as given in example 6 except for stock solutions of 1×10^−2M was prepared instead of 20 mg/ml.

[2] = tested on: KB; assay: In vitro cytotoxicity (SRB), KB; type: cell-based, human; conditions: 2 × 10^−5 M, 48 h
Procedure: as §1, with “The cell suspension of the required cell density was prepared in complete growth medium with gentamycin (50 μg/ml) for determination of cytotoxicity.” left out
(§5) A stock solutions of (20 mg/ml) of test material were prepared in distilled water. […] In vitro cytotoxicity against human cancer cell lines was determined (Monks, A., Scudiero, D., Skehan, P., Shoemaker R., Paull, K., Vistica, D., Hose, C., Langley, j., Cronise, P., Vaigro-Wolff, A., Gray-Goodrich, M., Campbell, H., Mayo, J and Boyd, M. (1991). Feasibility of a high-flux anticancer drug screen using a diverse panel of cultured human tumor cell lines. J. Natl. Cancer Inst. 83, 757-766.) using 96-well tissue culture plates. […] The optical density (OD) was recorded on ELISA reader at 540 nm. […]

[3] = tested on: SiHa; assay: In vitro cytotoxicity (SRB), SiHa; type: cell-based, human; conditions: 48 h
Procedure: as §1, §2, §3, §4

[4] = tested on: SK N SH; assay: In vitro cytotoxicity (SRB), SK N SH; type: cell-based, human; conditions: 48 h
Procedure: as §1, §2, §3, §4

[5] = tested on: Colo 205; assay: In vitro cytotoxicity (SRB), Colo 205; type: cell-based, human; conditions: 48 h
Procedure: as §1, §2, §3, §4

[6] = tested on: SW 620; assay: In vitro cytotoxicity (SRB), SW 620; type: cell-based, human; conditions: 48 h
Procedure: as §1, §2, §3, §4

[7] = tested on: HT 29; assay: In vitro cytotoxicity (SRB), HT 29; type: cell-based, human; conditions: 48 h
Procedure: as §1, §2, §3, §4

[8] = tested on: HOP-62; assay: In vitro cytotoxicity (SRB), HOP-62; type: cell-based, human; conditions: 48 h
Procedure: as §1, §2, §3, §4

[9] = tested on: MCF-7; assay: In vitro cytotoxicity (SRB), MCF-7; type: cell-based; conditions: Homo sapiens, MCF7; MCF-7, 1 × 10^−5 M, 48 h; read-out: percent growth inhibition
Procedure: as §1, with “The cell suspension of the required cell density was prepared in complete growth medium with gentamycin (50 μg/ml) for determination of cytotoxicity.” left out
as §5

[10] = tested on: T 47 D; assay: In vitro cytotoxicity (SRB), T 47 D; type: cell-based; conditions: Homo sapiens, T47D, 1 × 10^−5 M, 48 h, read-out: percent growth inhibition
Procedure: as §1, with “The cell suspension of the required cell density was prepared in complete growth medium with gentamycin (50 μg/ml) for determination of cytotoxicity.” left out
as §5

[11] = tested on: ZR 75-1; assay: In vitro cytotoxicity (SRB), ZR 75-1; type: cell-based; conditions: Homo sapiens; ZR 75-1, 1 × 10^−5 M, 48 h; read-out: percent growth inhibition
Procedure: as §1, with “The cell suspension of the required cell density was prepared in complete growth medium with gentamycin (50 μg/ml) for determination of cytotoxicity.” left out
as §5

[12] = tested on: IMR 32; assay: In vitro cytotoxicity (SRB), IMR 32; type: cell-based, human; conditions: IMR 32, 1 × 10^−5 M, 48 h
Procedure: as §1, with “The cell suspension of the required cell density was prepared in complete growth medium with gentamycin (50 μg/ml) for determination of cytotoxicity.” left out
as §5

[13] = tested on: SNB 78; assay: In vitro cytotoxicity (SRB), SNB 78; type: cell-based, human; conditions: SNB 78, 1 × 10^−5 M, 48 h
Procedure: as §1, with “The cell suspension of the required cell density was prepared in complete growth medium with gentamycin (50 μg/ml) for determination of cytotoxicity.” left out
as §5

[14] = tested on: NIH OVCAR5; assay: In vitro cytotoxicity (SRB), NIH OVCAR5; type: cell-based; conditions: Homo sapiens, OVCAR-5; NIH OVCAR5, 1 × 10^−5 M, 48 h; read-out: percent growth inhibition
Procedure: as §1, with “The cell suspension of the required cell density was prepared in complete growth medium with gentamycin (50 μg/ml) for determination of cytotoxicity.” left out
as §5

[15] = tested on: SK N MC; assay: In vitro cytotoxicity (SRB), SK N MC; type: cell-based; conditions: Homo sapiens, 1 × 10^−5 M, 48 h, read-out: percent growth inhibition
Procedure: as §1, with “The cell suspension of the required cell density was prepared in complete growth medium with gentamycin (50 μg/ml) for determination of cytotoxicity.” left out
as §5

[16] = tested on: A 549; assay: In vitro cytotoxicity (SRB), A 549; type: cell-based, human; conditions: A 549, 1 × 10^−5 M, 48 h
Procedure: as §1, with “The cell suspension of the required cell density was prepared in complete growth medium with gentamycin (50 μg/ml) for determination of cytotoxicity.” left out
as §5

[17] = tested on: NCI-H23; assay: In vitro cytotoxicity (SRB), NCI-H23; type: cell-based, human; conditions: NCI-H23, 1 × 10^−5 M, 48 h
Procedure: as §1, with “The cell suspension of the required cell density was prepared in complete growth medium with gentamycin (50 μg/ml) for determination of cytotoxicity.” left out
as §5

[18] = tested on: NIH OVCAR 3; assay: In vitro cytotoxicity (SRB), NIH OVCAR 3; type: cell-based, human; conditions: NIH OVCAR 3, 1 × 10^−5 M, 48 h
Procedure: as §1, with “The cell suspension of the required cell density was prepared in complete growth medium with gentamycin (50 μg/ml) for determination of cytotoxicity.” left out
as §5

[19] = tested on: DU 145; assay: In vitro cytotoxicity (SRB), DU 145; type: cell-based, human; conditions: DU 145, 1 × 10^−5 M, 48 h
Procedure: as §1, with “The cell suspension of the required cell density was prepared in complete growth medium with gentamycin (50 μg/ml) for determination of cytotoxicity.” left out
as §5

SMILES	percent growth inhibition ([3]; 1 × 10^−4 M) [%]	percent growth inhibition ([3]; 1 × 10^−5 M) [%]	percent growth inhibition ([3]; 1 × 10^−6 M) [%]	percent growth inhibition ([4]; SK N SH, 1 × 10^−5 M) [%]	percent growth inhibition ([4]; SK-NSH, 1 × 10^−4 M) [%]	percent growth inhibition ([4]; SK-NSH, 1 × 10^−6 M) [%]	percent growth inhibition ([5]; Colo-205, 1 × 10^−4 M) [%]	percent growth inhibition ([5]; Colo-205, 1 × 10^−5 M) [%]	percent growth inhibition ([5]; Colo-205, 1 × 10^−6 M) [%]	percent growth inhibition ([6]; SW620, 1 × 10^−4 M) [%]	percent growth inhibition ([6]; SW 620, 1 × 10^−5 M) [%]	percent growth inhibition ([6]; SW620, 1 × 10^−6 M) [%]	percent growth inhibition ([1]; HCT-15, 1 × 10^−4 M) [%]	percent growth inhibition ([1]; HCT-15, 1 × 10^−5 M) [%]	percent growth inhibition ([1]; HCT-15, 1 × 10^−6 M) [%]	percent growth inhibition ([7]; HT 29, 1 × 10^−5 M) [%]	percent growth inhibition ([7]; HT-29, 1 × 10^−4 M) [%]	percent growth inhibition ([7]; HT-29, 1 × 10^−6 M) [%]	percent growth inhibition ([8]; HOP-62, 1 × 10^−4 M) [%]	percent growth inhibition ([8]; HOP-62, 1 × 10^−5 M) [%]	further results
O=c1[nH]cc(F)c(=O)[nH]1 [5-Flurouracil, reference compound]																					percent growth inhibition ([1]; HCT 15, 2 × 10^−5 M): 50%; percent growth inhibition [2]: 9%
O=C(/C=C/c1ccc(O)c(O[C@@H]2O[C@H](CO)[C@@H](O)[C@H](O)[C@H]2O)c1)c1ccc(O[C@@H]2O[C@H](CO)[C@@H](O)[C@H](O)[C@H]2O)cc1O [Isobutrin]	50	0	0	25	93	0	74	0	0	85	0	0	99	21	0	10	94	0	65	0	percent growth inhibition ([8]; HOP-62, 1 × 10^−6 M): 0%
COc1cccc2c1C(=O)c1c(O)c3c(c(O)c1C2=O)C[C@@](O)(C(=O)CO)C[C@@H]3O[C@H]1C[C@H](N)[C@H](O)[C@H](C)O1 [Adriamycin]											59					69					inhibition [9]: 72%; inhibition [10]: 34%; inhibition [11]: 46%; percent growth inhibition [12]: 87%; inhibition at 10 µM ([4]; Homo sapiens, SK N SH, 1 × 10^−5 M, read-out: percent growth inhibition): 82%; percent growth inhibition [13]: 20%; inhibition [14]: 45%
CC/C(=C(\c1ccccc1)c1ccc(OCCN(C)C)cc1)c1ccccc1 [Tamoxifen]																					inhibition [15]: 27%; percent growth inhibition [16]: 17%; inhibition [14]: 20%
CO[C@@]12[C@H](COC(N)=O)C3=C(C(=O)C(C)=C(N)C3=O)N1C[C@@H]1N[C@@H]12 [Mitomycin C]																					percent growth inhibition [12]: 83%; percent growth inhibition [17]: 59%; percent growth inhibition [18]: 31%; percent growth inhibition [19]: 69%
O=C1C[C@@H](c2ccc(O)c(O[C@@H]3O[C@H](CO)[C@@H](O)[C@H](O)[C@H]3O)c2)Oc2cc(O[C@@H]3O[C@H](CO)[C@@H](O)[C@H](O)[C@H]3O)ccc21 [Butrin]	80	0	0	8	83	9	40	0	0	92	0	0	98	26	0	11	99	9	65	6	percent growth inhibition ([8]; HOP-62, 1 × 10^−6 M): 0%
